{"source": "paper PMC9225741", "about": "“Inhibition of Streptococcus mutans adhesion and biofilm formation with small-molecule inhibitors of sortase A from Juniperus chinensis” (Journal of Oral Microbiology, 2022)", "key": {"S. mutans OMZ65": {"system": "S. mutans OMZ65", "experiment": "Antibacterial activity assay (MIC, broth dilution)", "format": "cell-based, Streptococcus mutans", "conditions": "S. mutans OMZ65, BHI broth, 16–20 h, 37°C, read-out: MIC (minimum inhibitory concentration)", "procedure": "Antibacterial activities of isolated compounds were determined according to a previously described method based on Clinical and Laboratory Standards Institute guidelines. Briefly, 5 mL of S. mutans OMZ65 was inoculated into brain heart infusion (BHI) broth, incubated aerobically for 16 h at 37°C, and the bacterial density was adjusted based on turbidity to match the 0.5 MacFarland standard at 625 nm. In each well of a 96-well plate, 20 μL of twofold diluted test compounds in 10% DMSO was added to 180 μL of cell culture in BHI broth and incubated for 16–20 h at 37°C. The final concentration of cells was approximately 5 × 10^5 colony-forming units (CFU)/mL. The minimal inhibitory concentration (MIC) values were identified as the lowest concentration that inhibited cell growth. Ampicillin was used as an antibacterial positive control."}, "[1]": {"system": "SrtA (from strain ATCC25175)", "parameters": "method as in PMID 24154653", "conditions": "cited from earlier work"}, "S. mutans NG8 [2]": {"system": "S. mutans NG8", "experiment": "Saliva-induced aggregation assay", "format": "cell-based, Streptococcus mutans", "procedure": "The effect of SrtA inhibitor on bacterial cell aggregation induced by human saliva was conducted according to a previously documented procedure. S. mutans NG8 (wild-type), srtA-deletion mutant (ΔsrtA), and srtA-complemented mutant (ΔsrtA+srtA) were used in this study. These strains were kindly provided by Prof. S. F. Lee (Dalhousie University, Nova Scotia, Canada) and inoculated into Todd Hewitt broth and incubated for 16 h at 37°C, washed twice with KPBS (137 mM NaCl, 2.7 mM KCl, 6.5 mM Na2HPO4, 1.5 mM KH2PO4, pH 7.2), and resuspended in KPBS to an approximate optical density of 1.0 at 700 nm. Assay mixtures consisted of 400 μL of cells, 100 μL of fresh clarified saliva, and diluted test compounds. Saliva was provided from one volunteer (a unmarried person) who had no dental health issues. The collected non-stimulated saliva was clarified by centrifugation (7,000 × g, 10 min, 4°C) and sterilized by membrane filtration (0.2 μm pore size). The mixtures were gently mixed through inversion and incubated aerobically at 37°C for 2 h. Turbidity at 700 nm was recorded every 20 min.\nUsing a combined bioactivity test, we subsequently examined the inhibitory effects of compound 1 on saliva-induced aggregation of S. mutans (Figure 3). […] Aggregation levels were measured based on the decrease of turbidity at 700 nm. […]"}, "S. mutans NG8 [3]": {"system": "S. mutans NG8", "experiment": "Adherence assay on saliva-coated hydroxyapatite beads", "format": "cell-based, Streptococcus mutans", "conditions": "90 min", "protocol": "The effect of SrtA inhibition on bacterial adherence was evaluated using saliva-coated hydroxyapatite beads (s-HAs) [11, 25]. A total of 30 μg of s-HAs (diameter, 80 µm; Bio-Rad, Hercules, CA) were coated with fresh saliva prepared as mentioned above for 1 h at room temperature and rinsed twice with 0.01 M potassium phosphate buffer (KPB; pH 7.0). S. mutans NG8 (wild type), srtA-deletion mutant (ΔsrtA), and srtA-complemented mutant (ΔsrtA + srtA) [11] were inoculated into 5 mL of BHI broth, incubated aerobically for 16 h at 37°C, and diluted to about 10^8 CFU/mL. […] After three rounds of washing with KPB, attachment between s-HAs and S. mutans cells was disrupted through sonication (50 W, 30s) in KPB. Dispersed cells were spread on Mitis-Salivarius agar (Difco, Detroit, MI) plates containing 3.2 mg/mL bacitracin. The number of colonies formed was determined after incubation for 48 h at 37°C.\nIn the present study, the role of SrtA inhibitors in modulating cell-surface-related properties of S. mutans was investigated in terms of adherence.\nAttachment of S. mutans NG8, srtA-deletion mutant (ΔsrtA), and srtA-complemented mutant (ΔsrtA+srtA) was induced for 90 min at 37°C under aerobic condition, followed by dispersal via sonication (50 W, 30s) after three washes, and then colony-forming unit counting on Mitis-Salivarius agar (3.2 mg/mL bacitracin) after incubation for 48 h at 37°C. […]"}, "S. mutans SrtA": {"target": "T1, S. mutans SrtA (Streptococcus mutans, UniProt Q8CM62)", "T1 construct": "made in house; host or cells: Escherichia coli", "T1 sequence (Q8CM62 entry or part of it)": "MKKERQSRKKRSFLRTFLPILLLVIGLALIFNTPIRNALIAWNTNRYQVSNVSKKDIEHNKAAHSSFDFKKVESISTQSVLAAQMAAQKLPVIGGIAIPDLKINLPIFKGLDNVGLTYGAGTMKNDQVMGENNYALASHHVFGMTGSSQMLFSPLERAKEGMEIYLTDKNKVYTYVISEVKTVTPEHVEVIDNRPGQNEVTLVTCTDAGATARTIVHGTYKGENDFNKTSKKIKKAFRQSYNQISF", "experiment": "biochemical", "format": "biochemical, Streptococcus mutans OMZ65", "procedure": "Recombinant SrtA protein was prepared following previously described procedures. S. mutans OMZ65 isolated from the human oral cavity was provided by Seoul National University School of Dentistry. The srtA genes derived from S. mutans OMZ65 were expressed in Escherichia coli and SrtA was purified through metal chelate affinity chromatography on Ni-nitriloacetic acid (NTA) resin. Each reaction was performed in a total volume of 100 μL, containing 50 mM Tris-HCl, 150 mM NaCl, and 5 mM CaCl2 at pH 7.5, along with 17 μg of purified SrtA and 250 ng of synthetic substrate (Dabcyl-LPETG-Edans). The sample compounds were added to each reaction mixture with the solvent DMSO (final concentration, 1%). After 1 h of incubation at 37°C, the reactions were quantified based on fluorometric intensity (350 nm excitation and 495 nm emission wavelengths) using a microplate reader (FLx800, BioTek Instruments, Winooski, VT). Triphasiol was used as a positive control for the SrtA inhibitor.\nRecombinant SrtA protein derived from S. mutans OMZ65 was prepared from an extract of E. coli transformant using Ni-NTA affinity chromatography. SrtA enzyme activities were measured through a fluorophotometric method using synthetic peptide substrate containing the LPETG motif. […] As SrtA inhibitors may act as anti-infective agents and disrupt bacterial infectiousness without impacting bacterial viability, the MICs of the isolated compounds were evaluated to identify possible effects on S. mutans aggregation, adhesion, and biofilm formation on solid surfaces."}, "S. mutans": {"system": "S. mutans", "experiment": "Biofilm formation assay (polystyrene plate and resin teeth, safranin staining)", "format": "cell-based, Streptococcus mutans", "conditions": "24 h", "procedure": "The effect of SrtA inhibition on bacterial biofilm formation was investigated using the polystyrene plate and resin teeth model according to a previously described method. Wild-type S. mutans and srtA mutants were inoculated aerobically into 5 mL of BHI broth at 37°C. Cultures in BHI broth containing 0.1% sucrose (final concentration 5 × 10^5 CFU/mL) were incubated with or without test compounds on 96-well polystyrene plates or with resin teeth (Endura, Shofu Inc., Kyoto, Japan) at 37°C for 24 h under aerobic condition. Biofilms formed on the plate and resin teeth were washed twice with distilled water and then stained with 0.1% safranin for 30 s. After three further washes, the safranin-bound biofilms on plates were dissolved with 30% acetic acid (v/v aqueous solution) and the intensity of absorbance at 530 nm wavelength, indicating safranin, was measured. Biofilms on resin teeth was also washed three times and photographed.\nBacterial adherence and aggregation are initial steps in the biofilm formation process. Through interruption of SrtA enzyme activity, biofilm formation by S. mutans could also be disrupted. To investigate the effect of compound 1 on biofilm formation of S. mutans, the biofilm biomasses of NG8 and srtA mutants formed over 24 h on 96-well plates and resin teeth were assessed through staining with 0.1% safranin.\nFigure 5. Inhibition of Streptococcus mutans biofilm formation by compound 1. Biofilm formation assays were performed using a polystyrene 96-well plate (A) and artificial resin teeth (B) at 37°C for 24 h under aerobic condition. […] 0.1% NaF was used as a positive control. Data are presented as the mean ± SD of three independent experiments (* p < 0.05, ** p < 0.01, and *** p < 0.001 based on Student’s t-test)."}, "[4]": {"system": "S. aureus ATCC6537p-derived SrtA", "parameters": "method as in PMID 16010573", "conditions": "cited from earlier work"}, "SrtA S. mutans OMZ65": {"system": "SrtA S. mutans OMZ65", "parameters": "method as in PMID 25746812", "conditions": "read-out: IC50, SrtA inhibitors against S. mutans OMZ65; cited from earlier work"}, "[5]": {"system": "SrtA derived from S. mutans UA159", "conditions": "cited from earlier work"}, "SrtA": {"system": "SrtA", "conditions": "read-out: IC50, SrtA activity; cited from earlier work"}, "[6]": {"conditions": "SrtA IC50, recombinant SrtA from S. mutans OMZ65, 1 h, 37°C"}}, "note": "Entries after “also recorded” stand apart in the source; their conditions may differ. Read-outs that look alike come from different tables or passages of the source."}
{"molecule": "CC1(C)S[C@@H]2[C@H](NC(=O)[C@H](N)c3ccccc3)C(=O)N2[C@H]1C(=O)O", "note": "[Ampicillin, reference compound]", "values": [{"measurement": "MIC", "setting": "S. mutans OMZ65; Streptococcus mutans", "value": 0.4, "unit": "µM"}]}
{"molecule": "C[C@@H]1O[C@@H](O[C@H]2C(=O)c3c(O)cc(O)cc3O[C@@H]2c2ccc(O)c(O)c2)[C@H](O)[C@H](O)[C@H]1O", "note": "[Astillbin]", "values": [{"measurement": "IC50, SrtA (from strain ATCC25175)", "setting": "[1]", "value": 7.5, "unit": "µg/mL"}, {"measurement": "IC50", "setting": "[1]; value in brackets", "value": 16.7, "unit": "µM"}]}
{"molecule": "COc1cc(C[C@H]2COC(=O)[C@@H]2Cc2cc(O)c(O)c(OC)c2)cc(O)c1O", "note": "[Compound 1, 3’,3”-dihydroxy-(−)-matairesinol]", "values": [{"measurement": "MIC", "setting": "S. mutans OMZ65", "value": ">300", "unit": "µM"}, {"measurement": "MIC", "setting": "S. mutans OMZ65; Streptococcus mutans", "value": "> 300", "unit": "µM"}, {"measurement": "saliva-induced cell aggregation", "setting": "S. mutans NG8 [2]; 4× the IC50, without sucrose", "value": "significantly repressed"}, {"measurement": "saliva-induced aggregation of NG8 cells (turbidity at 700 nm)", "setting": "S. mutans NG8 [2]; tested at 0×, 1×, 2× and 4× the SrtA IC50 (16.1, 32.2, 64.4 μM), 2 h, 37°C", "value": "markedly reduced the aggregation of NG8 cells in a dose-dependent manner; also recorded: markedly reduced the aggregation capacity of the bacterial cells in a dose-dependent manner"}, {"measurement": "adherence of S. mutans to s-HAs vs control (NG8)", "setting": "S. mutans NG8 [3]; 1× IC50 (16.1 μM)", "value": "not significantly different"}, {"measurement": "decrease of bacterial adhesion to s-HAs compared to the control group", "setting": "S. mutans NG8 [3]; 4× the IC50 (64.4 μM)", "value": "about 60%"}, {"measurement": "IC50", "setting": "S. mutans SrtA; [6]", "value": 16.1, "unit": "µM"}, {"measurement": "biofilm formation on 96-well polystyrene plates", "setting": "S. mutans; 4× the IC50 (64.4 μM), 0.1% sucrose", "value": "significantly reduced"}, {"measurement": "concentrations disrupting biofilm formation on the surface of resin teeth", "setting": "S. mutans; 0.1% sucrose, safranin staining", "value": "higher than 32.2 μM"}]}
{"molecule": "COc1cc(C[C@H]2COC(=O)[C@@H]2Cc2ccc(O)c(OC)c2)ccc1O", "note": "[Compound 2, (−)-matairesinol]", "values": [{"measurement": "MIC", "setting": "S. mutans OMZ65; Streptococcus mutans", "value": "> 300", "unit": "µM"}, {"measurement": "IC50", "setting": "S. mutans SrtA; [6]", "value": "> 300", "unit": "µM"}]}
{"molecule": "O=c1c(O)c(-c2ccc(O)c(O)c2)oc2cc(O)cc(O)c12", "note": "[Compound 3, quercetin]", "values": [{"measurement": "MIC", "setting": "S. mutans OMZ65; Streptococcus mutans", "value": "> 300", "unit": "µM"}, {"measurement": "SrtA inhibitory activity (in words)", "setting": "S. mutans SrtA; S. mutans SrtA", "value": "weak inhibitory activities"}]}
{"molecule": "COc1cc(O)cc(O)c1C(C)=O", "note": "[Compound 4, 4,6-dihydroxy-2-methoxyacetophenone]", "values": [{"measurement": "MIC", "setting": "S. mutans OMZ65; Streptococcus mutans", "value": "> 300", "unit": "µM"}, {"measurement": "SrtA inhibitory activity (in words)", "setting": "S. mutans SrtA; S. mutans SrtA", "value": "weak inhibitory activities"}, {"measurement": "IC50", "setting": "S. mutans SrtA; [6]", "value": 151, "unit": "µM"}, {"measurement": "IC50", "setting": "S. mutans SrtA; pIC50, pIC50 = −log10(IC50), S. mutans SrtA", "value": 155, "unit": "µM"}]}
{"molecule": "CC(C)c1cc(=O)c(O)ccc1O", "note": "[Compound 5, 5-hydroxyhinokitiol]", "values": [{"measurement": "MIC", "setting": "S. mutans OMZ65; Streptococcus mutans", "value": "> 300", "unit": "µM"}, {"measurement": "IC50", "setting": "S. mutans SrtA; [6]", "value": 51.7, "unit": "µM"}]}
{"molecule": "C/C(=C\\Cc1ccc(=O)c(O)cc1C(C)C)CO", "note": "[Compound 6, juniperone A]", "values": [{"measurement": "MIC", "setting": "S. mutans OMZ65; Streptococcus mutans", "value": 257, "unit": "µM"}, {"measurement": "IC50", "setting": "S. mutans SrtA; [6]", "value": 62.5, "unit": "µM"}]}
{"molecule": "[F-].[Na+]", "note": "[NaF, reference compound]", "values": [{"measurement": "effect on S. mutans biofilm formation (positive control)", "setting": "S. mutans; 0.1%", "value": "potent inhibitory effects"}]}
{"molecule": "CC(C)C(=O)Cc1c(OCC(O)C(C)(C)O)ccc2ccc(=O)oc12", "note": "(stereo not drawn) [Triphasiol, reference compound]", "values": [{"measurement": "pIC50", "setting": "S. mutans SrtA; pIC50 = −log10(IC50), S. mutans SrtA", "value": 4.60}, {"measurement": "IC50", "setting": "S. mutans SrtA; recombinant SrtA from S. mutans OMZ65, 1 h, 37°C, read-out: SrtA IC50", "value": 25.3, "unit": "µM"}, {"measurement": "IC50", "setting": "[4]", "value": 34.5, "unit": "µM"}]}
{"molecule": "O=C(O)/C=C/c1ccc(O)c(O)c1", "note": "[caffeic acid]", "values": [{"measurement": "IC50", "setting": "SrtA S. mutans OMZ65", "value": 20.2, "unit": "µM"}]}
{"molecule": "COc1cc(/C=C/C(=O)CC(=O)/C=C/c2ccc(O)c(OC)c2)ccc1O", "note": "[curcumin]", "values": [{"measurement": "IC50", "setting": "[5]", "value": 10.2, "unit": "µM"}]}
{"molecule": "O=c1c(O)c(-c2ccc(O)cc2O)oc2cc(O)cc(O)c12", "note": "[morin]", "values": [{"measurement": "IC50", "setting": "[5]", "value": 27.2, "unit": "µM"}]}
{"molecule": "O=c1c(O)c(-c2cc(O)c(O)c(O)c2)oc2cc(O)cc(O)c12", "note": "[myricetin]", "values": [{"measurement": "IC50", "setting": "SrtA", "value": 48.7, "unit": "µM"}]}
{"molecule": "(−)-rosmarinic acid", "values": [{"measurement": "IC50", "setting": "SrtA S. mutans OMZ65", "value": 20.1, "unit": "µM"}]}
